According to patent publication US20210352895A1, “SYNERGISTIC PESTICIDAL COMPOSITIONS AND METHODS FOR DELIVERY OF ACTIVE INGREDIENTS” (0903608 B.C. Ltd., priority 2018, published 2021):
Like-named read-outs stand apart in the source and are kept apart here.

How the values were obtained:
[1] = system: Sclerotinia sclerotiorum; test: Synergistic Growth Inhibition Assay (MIC / FIC index, resazurin, 96-well) on Sclerotinia sclerotiorum; format: cell-based; details: for MIC: Sclerotinia sclerotiorum
Protocol: (§1) In some embodiments, the synergistic action between the pesticidal active ingredient, and the at least one C4-C10 (or alternatively C11 or C12) saturated or unsaturated aliphatic acid components of the pesticidal compositions according to embodiments of the present disclosure was tested using a Synergistic Growth Inhibition Assay, which is derived from and related to a checkerboard assay as is known in the art for testing of combinations of antimicrobial agents. In the Synergistic Growth Inhibition Assay used in accordance with some embodiments of the present disclosure, multiple dilutions of combinations of pesticidal active ingredient and at least one C4-C10 saturated or unsaturated aliphatic acid agents are tested in individual cells for inhibitory activity against a target pest or pathogenic organism. In one such embodiment, the combinations of pesticidal active ingredient and C4-C10 (or alternatively C11 or C12) saturated or unsaturated aliphatic acid agents may preferably be tested in decreasing concentrations. In a further such embodiment, the combinations of pesticidal active ingredient and C4-C10 (or alternatively C11 or C12) saturated or unsaturated aliphatic acid agents may be tested in increasing concentrations. These multiple combinations of the pesticidal active ingredient and at least one C4-C10 (or alternatively C11 or C12) saturated or unsaturated aliphatic acid agents may be prepared in 96-well microtiter plates. In one such embodiment, the Synergistic Growth Inhibition Assay then comprises rows which each contain progressively decreasing concentrations of the pesticidal active ingredient and one or more C4-C10 (or alternatively C11 or C12) saturated or unsaturated aliphatic acid agents to test for the MIC of the agents in combination at which growth of the target pest or pathogen is inhibited. Thus, each well of the microtiter plate is a unique combination of the two agents, at which inhibitory efficacy of the combination against the target pest or pathogen can be determined.
(§2) In one embodiment according to the present disclosure, for each row of microtiter cells in the Synergistic Growth Inhibition Assay, the FIC index is calculated from the lowest concentration of the pesticidal active ingredient and one or more C4-C10 saturated or unsaturated aliphatic acid agents necessary to inhibit growth of a target pest or pathogen. The FIC of each component is derived by dividing the concentration of the agent present in that well of the microtiter plate by the minimal inhibitory concentration (MIC) needed of that agent alone to inhibit growth of the target pest or pathogen. The FIC index is then the sum of these values for both agents in that well of the microtiter plate. The FIC index is calculated for each row as follows:
(§3) FICindex=MICa/MICA+MICb/MICB
(§4) Fractional inhibitory concentration indices may then used as measure of synergy. […] When the FIC index is equal to 1, the combination is additive.
(§5) Then, serial dilutions of these initial compositions in successive wells in the row of the microtiter plate were used to assay the pesticidal composition under the same conditions to determine the concentration of the composition combining the two agents corresponding to the microtiter well in which growth inhibition of the target pest or organism ceases.
(§6) Similarly to as described above, Resazurin was used as an indicator of growth or inhibition of growth of Sclerotinia sclerotiorum in the exemplary Synergistic Growth Inhibition Assay. In addition to the color change of the resazurin, an optical or visual examination of the microtiter well may also be made to additionally determine the presence of growth or inhibition of growth of the Sclerotinia sclerotiorum.

[2] = system: Alternaria solani; test: Synergistic Growth Inhibition Assay (MIC / FIC index) on Alternaria solani; format: cell-based; details: for MIC (A): Compound A alone
Protocol: as §1, §2, §3, §4, §5
Alternatively, other suitable representative pest or pathogen organisms may be used to determine synergy of combinations of pesticidal active ingredient agents and one or more C4-C10 (or alternatively C11 or C12) saturated or unsaturated aliphatic acid agents in accordance with embodiments of the present disclosure. For example, other representative fungal pathogens may be used, such as but not limited to Leptosphaeria maculans, Sclerotinia spp. and Verticillium spp.

[3] = system: Botrytis cinerea; test: Synergistic Growth Inhibition Assay (MIC / FIC index, resazurin, 96-well) on Botrytis cinerea; format: cell-based; details: Botrytis cinerea, Botrytis cinerea
Protocol: as §1, §2, §3, §4, §5
as §6, with “Botrytis cinerea” for “Sclerotinia sclerotiorum”, “Botrytis cinerea.” for “Sclerotinia sclerotiorum.”

[4] = system: Fusarium oxysporum; test: Synergistic Growth Inhibition Assay (MIC / FIC index, resazurin, 96-well) on Fusarium oxysporum; format: cell-based; details: for MIC: Fusarium oxysporum
Protocol: as §1, §2, §3, §4, §5
Resazurin dye (also known as Alamar blue dye) was used as an indicator to determine the presence of growth or inhibition of growth of Fusarium oxysporum in the wells of the 96 well microtiter plates used in the exemplary Synergistic Growth Inhibition Assay. In addition to the color change of the resazurin dye in the presence of growth of the Fusarium oxysporum, an optical or visual examination of the microtiter well may also be made to additionally determine the presence of growth or inhibition of growth of the Fusarium oxysporum.

[5] = system: Trichoplusia ni; test: In-vitro insecticidal efficacy of Entrust SC (spinosad) with saturated and unsaturated aliphatic acids on artificial diet, Abbott and Colby formulae; format: in vivo, Trichoplusia ni (cabbage looper); details: Entrust SC 0.034 ppm ([…] spinosad); aliphatic acid (salt) 500 ppm; Abbott-corrected
Protocol: An artificial diet suitable for Trichoplusia ni (cabbage looper caterpillar) was prepared from a commercially available general purpose lepidoptera artificial diet premix (General Purpose Lepidoptera Diet available from Frontier Scientific Services, Newark, Del.) mixed in agar media and then heated to liquify the media. The liquid artificial diet media was then used to fill each well of a 96-well treatment plate with 200 uL of artificial diet media, which was allowed to solidify at room temperature and stored at approximately 4 C.
A 20 uL treatment sample of each treatment formulation was then placed on top of the solidified artificial diet media in each well of the 96 well plates and allowed to dry overnight. The following day, one neonate Trichoplusia ni (cabbage looper) larva (hatched from eggs obtained from the Natural Resource Canada insect research facility in Sault-Ste-Marie, ON, Canada) was added to each well of the plate, and their mortality rate was evaluated after 5 days, to determine the insecticidal efficacy of the Entrust® SC treatment alone, each exemplary unsaturated or saturated aliphatic acid (and salt) alone, and each combination of spinosad (as Entrust® SC) and unsaturated or saturated aliphatic acid (and salt). Each experiment contained 3 replicates.
While for SF<1, antagonism is present and for SF=1, the efficacy of the compounds is merely additive.

[6] = Alternaria solani, Compound B alone, 7 days incubation, read-out: MIC (B)
[7] = 48 h, Compound B alone, 48 hours incubation, read-out: MIC (B)
[8] = Alternaria solani, Compound B alone, Alternaria solani, incubation period of 7 days, read-out: MIC (B)
[9] = 96 h, Table 58, Compound B = saturated aliphatic acid, alone or in combination with oregano oil, incubation for 4 days, read-out: MIC (B)
[10] = 24 h, Table 75, Compound B = saturated aliphatic acid, alone or in combination with wintergreen oil, incubation period of 24 hours, read-out: MIC (B)
[11] = 24 h, Table 78, Compound B = saturated aliphatic acid, alone or in combination with oregano oil, incubation period of 24 hours, read-out: MIC (B)
[12] = Compound A alone, incubation period of 48 hours

Q: Which MIC ([1]; Compound B alone, incubation period of 7 days, read-out: MIC (B)) does the source give for `CCCCC(CC)C(=O)O` (centres unmarked) [2-ethylhexanoic acid] here?
A: 625 µg/mL

Q: And the MIC [2, 6]?
A: 312 µg/mL

Q: What about the MIC [3, 7] of the same compound?
A: 312 µg/mL

Q: And the MIC ([3]; 48 h, Compound B alone, incubation period of 48 hours, read-out: MIC (B))?
A: 312 µg/mL

Q: For `CCCCCCCCC(C)C(=O)O` (centres unmarked) [2-methyldecanoic acid], which MIC [2, 6] is on record?
A: 1000 µg/mL

Q: And the MIC [2, 8]?
A: 125 µg/mL

Q: What about the MIC [4, 7] of the same compound?
A: 62.5 µg/mL

Q: And the MIC ([3]; 48 h, Compound A alone, incubation period of 48 hours, read-out: MIC (A))?
A: 15.6 µg/mL

Q: `CCCCCCC(C)C(=O)O` (centres unmarked) [2-methyloctanoic acid] was tested. Which MIC [2, 6] did it give?
A: 625 µg/mL

Q: What about the MIC [2, 8] of the same compound?
A: 156 µg/mL

Q: What about the MIC [4, 7] of the same compound?
A: 156 µg/mL

Q: Which results are given for `O=C(O)CCCCCCCO` [8-hydroxyoctanoic acid]?
A: MIC ([1]; read-out: MIC (B), Compound B alone, 7 days incubation): 2500 µg/mL; MIC ([1]; read-out: MIC (B), Compound B alone, incubation period of 7 days): 5000 µg/mL; MIC ([2]; Alternaria solani, read-out: MIC (B), Compound B alone, 7 days incubation): 2500 µg/mL; MIC ([4]; 48 h, read-out: MIC (B), Compound B alone, 48 hours incubation): 5000 µg/mL; MIC ([4]; 48 h, read-out: MIC (B), Compound B alone, incubation period of 48 hours): 5000 µg/mL

Q: How did the MIC ([4]; 24 h, Table 53, Compound B = saturated aliphatic acid, alone or in combination with wintergreen oil, incubation for 24 hours, read-out: MIC (B)) turn out when `CCCCCCCCCC(=O)O` [Decanoic acid, decanoic acid] was run?
A: 62.5 µg/mL

Q: What about the MIC ([4]; 96 h, Compound B alone, incubation for 4 days, read-out: MIC (B)) of the same compound?
A: 62.5 µg/mL

Q: What about the “Observed Efficacy, W (%)” value [5] of the same compound?
A: 0%

Q: Which results are given for `CCCCCCC(=O)O` [Heptanoic acid, heptanoic acid]?
A: MIC ([1]; Table 68, Compound B = saturated aliphatic acid, alone or in combination with clove leaf oil, incubation period of 7 days, read-out: MIC (B)): 78.1 µg/mL; MIC ([1]; Table 70, Compound B = saturated aliphatic acid, alone or in combination with rosemary oil, incubation period of 7 days, read-out: MIC (B)): 78.1 µg/mL; MIC ([4]; 96 h, Table 54, Compound B = saturated aliphatic acid, alone or in combination with peppermint oil, incubation for 4 days, read-out: MIC (B)): 312 µg/mL; MIC ([4]; 96 h, Table 55, Compound B = saturated aliphatic acid, alone or in combination with spearmint oil, incubation for 4 days, read-out: MIC (B)): 156 µg/mL; MIC [4, 9]: 78.1 µg/mL; MIC [3, 10]: 39.1 µg/mL; MIC [3, 11]: 78.1 µg/mL; MIC ([3]; 96 h, Table 76, Compound B = saturated aliphatic acid, alone or in combination with spearmint oil, incubation period of 4 days, read-out: MIC (B)): 78.1 µg/mL; Observed Efficacy, W (%) [5]: 9.1%

Q: For `CCCCCC(=O)O` [Hexanoic acid, hexanoic acid], which MIC ([4]; 24 h, read-out: MIC (B), Table 51, Compound B = saturated aliphatic acid, alone or in combination with thyme oil, incubation for 24 hours) is on record?
A: 78.1 µg/mL

Q: And the MIC ([4]; 24 h, read-out: MIC (B), Table 52, Compound B = saturated aliphatic acid, alone or in combination with garlic oil, incubation for 24 hours)?
A: 156 µg/mL

Q: What about the MIC ([4]; 96 h, read-out: MIC (B), Table 54, Compound B = saturated aliphatic acid, alone or in combination with peppermint oil, incubation for 4 days) of the same compound?
A: 156 µg/mL

Q: What about the MIC ([4]; 96 h, read-out: MIC (B), Table 58, Compound B = saturated aliphatic acid, alone or in combination with oregano oil, incubation for 4 days) of the same compound?
A: 156 µg/mL

Q: What about the MIC ([3]; 24 h, read-out: MIC (B), Table 75, Compound B = saturated aliphatic acid, alone or in combination with wintergreen oil, incubation period of 24 hours) of the same compound?
A: 39.1 µg/mL

Q: What about the MIC ([3]; 24 h, read-out: MIC (B), Table 78, Compound B = saturated aliphatic acid, alone or in combination with oregano oil, incubation period of 24 hours) of the same compound?
A: 156 µg/mL

Q: What about the MIC ([3]; 96 h, read-out: MIC (B), Table 74, Compound B = saturated aliphatic acid, alone or in combination with thyme oil, incubation period of 4 days) of the same compound?
A: 312 µg/mL

Q: What about the MIC ([3]; 96 h, read-out: MIC (B), Table 76, Compound B = saturated aliphatic acid, alone or in combination with spearmint oil, incubation period of 4 days) of the same compound?
A: 312 µg/mL

Q: And the “MIC (B)” value ([3]; Compound B (aliphatic acid) alone, 2-fold dilutions, incubation period of 48 hours)?
A: 0.07812 mg/mL

Q: And the “Observed Efficacy, W (%)” value [5]?
A: 27.3%

Q: For `CCCCCCCCC(=O)O` [Nonanoic acid, nonanoic acid], which MIC ([4]; 24 h, read-out: MIC (B), Table 53, Compound B = saturated aliphatic acid, alone or in combination with wintergreen oil, incubation for 24 hours) is on record?
A: 156 µg/mL

Q: And the MIC [4, 9]?
A: 78.1 µg/mL

Q: And the MIC ([4]; 96 h, read-out: MIC (B), Table 55, Compound B = saturated aliphatic acid, alone or in combination with spearmint oil, incubation for 4 days)?
A: 156 µg/mL

Q: And the MIC [3, 10]?
A: 39.1 µg/mL

Q: What about the MIC [3, 11] of the same compound?
A: 78.1 µg/mL

Q: What about the “Observed Efficacy, W (%)” value [5] of the same compound?
A: 0%

Q: Which results are given for `CO/C=C(/C(=O)OC)c1ccccc1COc1cccc(C(F)(F)F)n1` [Picoxystrobin, reference compound]?
A: MIC (A) ([1]; Compound A alone, 7 days incubation): 0.5 mg/mL; MIC (A) ([2]; Alternaria solani, incubation period of 7 days): 0.5 mg/mL; MIC (A) [3, 12]: 0.25 mg/mL

Q: Which “MIC (B)” value ([3]; Compound B alone, incubation period of 48 hours) does the source give for `CCCCCCC/C=C/C(=O)O` [Trans-2 decenoic acid] here?
A: 0.03906 mg/mL

Q: And the “Observed Efficacy, W (%)” value [5]?
A: 0%

Q: What does the source list for `CCC/C=C/C(=O)O` [Trans-2-hexenoic acid, trans-2-hexenoic acid]?
A: MIC (B) ([4]; Compound B alone, 24 hour incubation): 0.3125 mg/mL; Observed Efficacy, W (%) [5]: 0%

Q: How did the “MIC (A)” value ([2]; 7 days incubation) turn out when Mancozeb [reference compound] was run?
A: 0.5 mg/mL

Q: And the “MIC (A)” value [3, 12]?
A: 0.03125 mg/mL
